The target in assay [1] is T1, DPP-IV (Homo sapiens, UniProt P27487).
T1 construct: purchased Abnova KA1311
Details: method as in Vilcacundo et al., 2017. As to conditions: peptide released from quinoa protein by pepsin-pancreatin digestion; ref Vilcacundo et al., 2017; read-out: IC50 DPP-IV inhibitory activity; cited from earlier work.

For assay [2], the target named is T2, ACE (Homo sapiens, UniProt P12821).
T2 construct: purchased ACE kit‐WST
Kind of assay: ACE inhibition assay (ACE kit-WST). As to conditions: chemically synthesized peptides; mean ± SD of three replicates. In kind it is biochemical. The procedure: The ACE inhibition assay was carried out with the ACE inhibitory assay kit (ACE kit‐WST). Absorbance at 450 nm was measured using a plate reader (SpectraMax plus, Molecular devices), and the IC50 value reported for each sample was the mean value from three independent replicate assays.

The target of assay [3] is T1, DPP-IV. As to the kind of experiment: DPP-IV inhibition assay (DPP-IV inhibitor screening assay kit, Gly-Pro-Aminomethylcoumarin substrate). In kind it is biochemical. As to conditions: chemically synthesized peptides; mean ± SD of three replicates. The procedure:
The DPP‐IV inhibition assay was determined using DPP‐IV inhibitor screening assay kit (KA1311, Abnova). Briefly, peptide samples (10 μl), dispersed in assay buffer (20 mM Tris‐HCl containing 100 mM NaCl and 1 mM EDTA, pH 8.0) at various concentrations, were mixed with assay buffer and DPP‐IV in a 96‐well plate. Then, substrate solution (Gly‐Pro‐Aminomethylcoumarin) was added to initiate the reactions. The mixture was incubated at 37°C for 30 min, and the fluorescence was measured using a plate reader (Synergy MX, Bio Tek) at an excitation wavelength of 350 nm and an emission wavelength of 450 nm. The concentration of the DPP‐IV inhibitor required to inhibit 50% of DPP‐IV activity under the above assay conditions was defined as the IC50, which was the mean value from three independent replicate assays.

Read-outs that look alike come from different tables or passages of the source. Peptide text beside a SMILES is read from it.

T1 sequence (P27487 whole entry): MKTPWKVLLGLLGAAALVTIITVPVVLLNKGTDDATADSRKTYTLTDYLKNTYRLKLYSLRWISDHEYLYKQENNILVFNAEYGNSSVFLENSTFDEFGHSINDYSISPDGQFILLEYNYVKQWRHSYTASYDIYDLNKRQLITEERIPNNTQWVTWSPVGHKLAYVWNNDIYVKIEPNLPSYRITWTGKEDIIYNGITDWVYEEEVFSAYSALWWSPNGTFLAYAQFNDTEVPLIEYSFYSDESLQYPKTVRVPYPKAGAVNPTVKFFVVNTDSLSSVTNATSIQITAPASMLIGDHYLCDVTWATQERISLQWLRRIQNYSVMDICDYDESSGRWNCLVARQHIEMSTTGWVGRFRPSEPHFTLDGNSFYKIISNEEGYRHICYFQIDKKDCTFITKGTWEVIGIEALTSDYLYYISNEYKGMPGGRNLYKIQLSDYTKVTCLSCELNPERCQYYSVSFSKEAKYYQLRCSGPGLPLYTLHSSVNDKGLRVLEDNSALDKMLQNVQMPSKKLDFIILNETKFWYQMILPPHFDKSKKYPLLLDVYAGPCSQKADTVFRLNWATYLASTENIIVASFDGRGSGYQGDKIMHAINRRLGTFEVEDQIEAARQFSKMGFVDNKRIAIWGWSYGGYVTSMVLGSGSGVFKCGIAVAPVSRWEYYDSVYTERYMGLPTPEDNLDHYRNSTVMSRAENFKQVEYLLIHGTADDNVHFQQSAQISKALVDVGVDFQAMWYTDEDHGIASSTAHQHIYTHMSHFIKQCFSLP
T2 sequence (P12821 30-1306, species assumed): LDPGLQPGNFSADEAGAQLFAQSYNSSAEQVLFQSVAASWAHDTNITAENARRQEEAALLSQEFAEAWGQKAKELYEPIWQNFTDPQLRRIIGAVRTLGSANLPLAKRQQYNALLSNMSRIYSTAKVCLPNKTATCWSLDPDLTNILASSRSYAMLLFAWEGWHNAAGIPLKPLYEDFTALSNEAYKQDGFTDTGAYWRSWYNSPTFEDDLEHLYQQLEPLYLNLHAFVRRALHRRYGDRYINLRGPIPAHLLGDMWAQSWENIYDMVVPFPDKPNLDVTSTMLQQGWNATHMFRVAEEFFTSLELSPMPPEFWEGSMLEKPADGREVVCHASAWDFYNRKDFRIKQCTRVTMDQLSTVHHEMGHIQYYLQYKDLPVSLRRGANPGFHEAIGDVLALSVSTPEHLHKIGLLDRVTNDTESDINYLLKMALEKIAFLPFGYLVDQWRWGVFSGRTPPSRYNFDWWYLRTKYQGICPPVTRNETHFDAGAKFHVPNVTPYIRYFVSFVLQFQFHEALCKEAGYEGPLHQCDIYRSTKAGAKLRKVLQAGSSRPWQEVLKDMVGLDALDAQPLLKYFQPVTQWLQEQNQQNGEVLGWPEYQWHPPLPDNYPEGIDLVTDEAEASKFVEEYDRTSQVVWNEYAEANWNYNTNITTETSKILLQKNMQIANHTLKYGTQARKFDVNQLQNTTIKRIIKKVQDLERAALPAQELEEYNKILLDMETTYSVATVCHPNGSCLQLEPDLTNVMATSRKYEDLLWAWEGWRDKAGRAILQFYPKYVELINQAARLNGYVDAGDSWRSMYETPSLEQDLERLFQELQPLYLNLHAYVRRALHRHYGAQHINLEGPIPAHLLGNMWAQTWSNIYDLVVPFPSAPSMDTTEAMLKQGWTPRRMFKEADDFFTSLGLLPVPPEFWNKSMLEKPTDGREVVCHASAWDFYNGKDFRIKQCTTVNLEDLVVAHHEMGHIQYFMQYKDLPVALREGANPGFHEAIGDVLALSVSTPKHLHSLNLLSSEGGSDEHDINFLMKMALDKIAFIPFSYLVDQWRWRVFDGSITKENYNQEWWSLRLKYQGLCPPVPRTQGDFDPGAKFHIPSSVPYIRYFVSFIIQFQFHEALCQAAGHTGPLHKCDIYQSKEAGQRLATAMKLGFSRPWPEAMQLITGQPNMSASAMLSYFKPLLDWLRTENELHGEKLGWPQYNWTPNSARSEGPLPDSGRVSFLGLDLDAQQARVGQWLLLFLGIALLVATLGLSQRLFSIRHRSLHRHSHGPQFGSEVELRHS

Turning to IQAEGGLT, the IC50 (in general, the concentration at which inhibition is half-maximal) in assay [1] is 268 µM. As for `CSCC[C@H](NC(=O)[C@@H](N)CC(N)=O)C(=O)N[C@@H](Cc1ccccc1)C(=O)O` [NMF] (H-Asn-Met-Phe-OH), the values for the IC50 in assay [2] and in assay [3] were 152 µM and 127 µM, respectively. For the compound `N[C@@H](Cc1cnc[nH]1)C(=O)N1CCC[C@H]1C(=O)N[C@@H](Cc1ccccc1)C(=O)O` [HPF] (H-His-Pro-Phe-OH), the IC50 was 100 µM in assay [2] and 34.3 µM in assay [3]. The corresponding values for `CSCC[C@H](N)C(=O)N[C@@H](C)C(=O)N[C@@H](Cc1ccccc1)C(=O)O` [MAF] (H-Met-Ala-Phe-OH) are 152 µM and 338 µM. The corresponding values for `CSCC[C@H](N)C(=O)N[C@@H](CS)C(=O)NCC(=O)O` [MCG] (H-Met-Cys-Gly-OH) are 20.9 µM and 149 µM.

The values are drawn from paper PMC7063354, “Novel dipeptidyl peptidase‐IV and angiotensin‐I‐converting enzyme inhibitory peptides released from quinoa protein by in silico proteolysis” (Food Science & Nutrition, 2020).
